Source: patent publication US11608323B2 (SYNGENTA LIMITED, priority 2013, dated 2023)

Experiments:
Type in all cases: in vivo
[1] = test system: AMARE; assay: Post-emergence herbicidal activity, glasshouse pot test; details: Amaranthus retroflexus; application post-emergence; rate 1000 g/Ha; evaluated after 13 days
In short: (§1)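 Visual herbicidal injury (0 = no damage, 5 = plant killed) recorded 13 days post-treatment. Treatment consisted of a single spray onto emerged seedlings at day 8; conditions before and after were 24/16 °C, 14 h light, 65% humidity.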

[2] = test system: SETFA; assay: as above; details: Setaria faberi; application post-emergence; rate 1000 g/Ha; evaluated after 13 days
In short: as §1

[3] = test system: ZEAMX; assay: as above; details: Zea mays; application post-emergence; rate 1000 g/Ha; evaluated after 13 days
In short: as §1

[4] = test system: ALOMY; assay: as above; details: Alopecurus myosuroides; application post-emergence; rate 1000 g/Ha; evaluated after 13 days
In short: as §1

[5] = test system: ABUTH; assay: as above; details: Abutilon theophrasti; application post-emergence; rate 1000 g/Ha; evaluated after 13 days
In short: as §1

[6] = test system: ECHCG; assay: as above; details: Echinochloa crus-galli; application post-emergence; rate 1000 g/Ha; evaluated after 13 days
In short: as §1

[7] = test system: AMARE; assay: Pre-emergence herbicidal activity, glasshouse pot test; details: rate 1000 g/Ha, evaluated after 13 days, scale 0-5
In short: (§2)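 Compounds are applied pre-emergence as an aqueous spray, formulated in 50:50 acetone/water containing 0.5% Tween 20, to pots sown one day earlier. Plants grow in a controlled glasshouse and are scored 13 days later for damage from 0 to 5.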

[8] = test system: SETFA; assay: as above; details: rate 1000 g/Ha, evaluated after 13 days, scale 0-5
In short: as §2

[9] = test system: ZEAMX; assay: as above; details: rate 1000 g/Ha, evaluated after 13 days, scale 0-5
In short: as §2

[10] = test system: ALOMY; assay: as above; details: rate 1000 g/Ha, evaluated after 13 days, scale 0-5
In short: as §2

[11] = test system: ABUTH; assay: as above; details: rate 1000 g/Ha, evaluated after 13 days, scale 0-5
In short: as §2

[12] = test system: ECHCG; assay: as above; details: rate 1000 g/Ha, evaluated after 13 days, scale 0-5
In short: as §2

SMILES	Post-emergence herbicidal activity AMARE (damage score 0-5) [1]	Post-emergence herbicidal activity SETFA (damage score 0-5) [2]	Post-emergence herbicidal activity ZEAMX (damage score 0-5) [3]	Post-emergence herbicidal activity ALOMY (damage score 0-5) [4]	Post-emergence herbicidal activity ABUTH (damage score 0-5) [5]	Post-emergence herbicidal activity ECHCG (damage score 0-5) [6]	AMARE damage score, application pre-emergence [7]	SETFA damage score, application pre-emergence [8]	ZEAMX damage score, application pre-emergence [9]	ALOMY damage score, application pre-emergence [10]	ABUTH damage score, application pre-emergence [11]	ECHCG damage score, application pre-emergence [12]
CC1C(O)N(c2cc(C(C)(C)C)ccn2)C(=O)N1C (single isomer, unassigned) [Compound A30]	5	5	3	5	5	5	5	5	2	4	5	5
Cc1cnc(N2C(=O)N(C)C(C)C2O)cc1C(F)(F)F (single isomer, unassigned) [Compound A51]	5	5	5	5	5	5	5	4	3	4	5	5
CON1C(=O)N(c2cc(C(F)(F)F)c(Br)cn2)C(O)C1C (single isomer, unassigned) [Compound A55]	5	5	4	5	5	5	5	4	2	4	5	4
CC(=O)Nc1cnc(N2C(=O)N(C)C(C)C2O)cc1C(F)(F)F (single isomer, unassigned) [Compound A56]	5	2	1	4	5	3	5	1	0	2	5	1
CC1C(O)N(c2cc(C(F)(F)F)c(NC(=O)C(C)(C)C)cn2)C(=O)N1C (single isomer, unassigned) [Compound A57]	5	5	4	5	5	5	5	3	1	4	5	3
CON1C(=O)N(c2cc(C(F)(F)F)c(C)cn2)C(O)C1C (single isomer, unassigned) [Compound A58]	5	5	4	4	5	5	5	3	4	4	5	3
CCC1C(O)N(c2cc(C(F)(F)F)ccn2)C(=O)N1C (stereo not drawn) [Compound A1]	5	5	3	5	5	5	5	5	3	4	5	5
CCCOC1C(O)N(c2cc(C(F)(F)F)ccn2)C(=O)N1C (stereo not drawn) [Compound A2]	5	5	2	4	5	5	5	3	1	2	5	4
COC1C(O)N(c2cc(C(F)(F)F)ccn2)C(=O)N1C (stereo not drawn) [Compound A5]	5	4	2	4	5	4	5	4	2	3	5	4
CN1C(=O)N(c2cc(C(F)(F)F)ccn2)C(O)C1O (stereo not drawn) [Compound A7, 4,5-dihydroxy-1-methyl-3-[4-(trifluoromethyl)-2-pyridyl]imidazolidin-2-one]	5	5	4	4	5	5	5	4	1	4	5	3
CON1C(=O)N(c2cc(C(F)(F)F)ccn2)C(O)C1C (stereo not drawn) [Compound A8, 4-hydroxy-1-methoxy-5-methyl-3-[4-(trifluoromethyl)-2-pyridyl]imidazolidin-2-one]	5	5	4	5	5	5	5	5	3	4	5	4
CC1C(O)N(c2cc(C(F)(F)F)c(-c3ccccn3)cn2)C(=O)N1C (stereo not drawn) [Compound A9]	5	5	4	5	5	5	5	5	3	4	5	5
CCOC1C(O)N(c2cc(C(F)(F)F)c(OC)cn2)C(=O)N1C (stereo not drawn) [Compound A10]	5	5	4	5	5	5	5	5	3	4	5	5
